Results published in patent publication US20060089371A1, “Phenyl or heteroaryl amino alkane derivatives as ip receptor antagonist” (Bayer HealthCare AG, priority 2002, published 2006).

Experiments:
IP receptor = target: T1, IP receptor (Homo sapiens, UniProt P43119); assay: IP receptor binding/cAMP in HEL cells ([3H]-iloprost binding, Assay 1; iloprost-induced cAMP production, Assay 2); conditions: compounds of about 40 to 90% purity, read-out: In vitro activity grade (IC50 class)
T1 construct: one million cells in 160 μl aliquot of cell suspension were put in a well of 96 well plate; host or cells: HEL 92.1.7 human erythroleukemia cells (whole cells)
Protocol: [Measurement of the [^3H]-iloprost Binding to HEL Cells] (Assay 1)
A human erythloleukemia cell line, HEL 92.1.7, was purchased from American Type Culture Correction and maintained in RPMI-1640 medium (Gibco BRL) supplemented with 10% fetal calf serum (FCS), 2 mM glutamine, 4.5 g/L glucose, 10 mM Hepes, 1 mM sodium pyruvate, 100 U/ml penicillin, and 100 μg/ml streptomycin in a humidified 5% CO2 atmosphere at 37° C. Cells were collected with centrifugation and washed with binding assay buffer (BAB: 50 mM Tris-HCl, 5 mM MgCl2 (pH 7.5)). Cells were suspended at the density of 6.25×10^6 cells/ml in BAB, and one million cells in 160 μl aliquot of cell suspension were put in a well of 96 well plate (Falcon). Then, 20 μl of compound solution, 100 μM of iloprost (for non-specific binding), or buffer alone (total binding), diluted with 1% DMSO in BAB was added. Finally, another 20 μl containing [^3H]-iloprost (0.02 μCi, 0.5-1 pmol) in BAB was added and incubated at room temperature for 30 min with a gentle shaking. Cell suspension was then transferred to a well of MultiScreen plate with GF/C glass filters (Millipore) to harvest cells. Cells were washed twice with 200 μl of ice-cold BAB and the plate was kept at 55° C. for 30 min to dry filters. The filter in the well was punched out to a counting tube and 2 ml of Ultima Gold XR (Packard) was added. [^3H]-radio activity in the filter was measured by a liquid scintillation counter (Beckman, USA).
[Iloprost-Induced cAMP Production Assay in HEL Cells] (Assay 2)
HEL cells were collected with centrifugation and washed with cAMP assay buffer (CAB: Hank's balanced salt solution, 17 mM Hepes, 0.1% bovine serum albumin, 1 mM IBMX, 0.4% DMSO, and 1 mM L-ascorbic acid sodium salt (pH 7.4)). Cells were suspended at the density of 2.5×10^5 cells/ml in CAB, and twenty thousand cells in 80 μl aliquot of cell suspension were put in a well of 96 well plate (Falcon). Then, 10 μl of compound solution diluted with 1% DMSO in CAB or buffer alone was added. The plate was incubated at 37° C. for 30 min. Then, another 10 μl containing 100 nM iloprost in CAB or buffer alone was added and further incubated at 37° C. for 30 min. cAMP content in the well was measured by a cAMP ELISA kit (Applied Biosystems, USA).
The data corresponds to the compounds as yielded by solid phase synthesis and thus to levels of purity of about 40 to 90%. For practical reasons, the compounds are grouped in three classes of activity as follows: IC50=A<0.1 μM≦B<1 μM≦C

T1 sequence (P43119 whole entry): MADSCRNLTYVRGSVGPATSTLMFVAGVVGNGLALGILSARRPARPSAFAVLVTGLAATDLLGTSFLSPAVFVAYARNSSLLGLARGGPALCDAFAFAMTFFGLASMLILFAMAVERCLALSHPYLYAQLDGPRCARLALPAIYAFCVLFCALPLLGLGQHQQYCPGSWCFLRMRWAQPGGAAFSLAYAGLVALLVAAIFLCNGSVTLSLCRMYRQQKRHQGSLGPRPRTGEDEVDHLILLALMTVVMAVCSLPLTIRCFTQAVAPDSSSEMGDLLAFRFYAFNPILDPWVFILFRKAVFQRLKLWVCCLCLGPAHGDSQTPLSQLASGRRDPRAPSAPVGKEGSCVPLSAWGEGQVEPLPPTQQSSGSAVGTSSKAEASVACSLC

O=C(O)C(Cc1ccccc1)Nc1cc(-c2ccc(OCc3ccccc3)cc2)ncn1 (stereo not shown) [Example 1-7]
melting point: 175 to 178 °C
IC50 (IP receptor): < 0.1 µM

O=C(O)C(Cc1ccccc1)Nc1cc(-c2ccc(Oc3ccccc3)cc2)ncn1 (stereo not shown) [Example 1-8]
melting point: 214 to 217 °C (dec.)
IC50 (IP receptor): < 0.1 µM

O=C(O)C(Cc1ccccc1)Nc1ncnc(-c2ccc(OCc3ccccc3)cc2)c1[N+](=O)[O-] (stereo not shown) [Example 1-9]
melting point: < 80 °C
IC50 (IP receptor): > 1 µM

O=C(O)C(Cc1ccccc1)Nc1cc(-c2ccc(-c3ccccc3)cc2)ncn1 (stereo not shown) [Example 1-10]
melting point: 146 to 148 °C (dec.)
IC50 (IP receptor): < 0.1 µM

CCC(C)C(Nc1cc(-c2ccc(OCc3ccccc3)cc2)ncn1)C(=O)O (stereo not shown) [Example 1-11]
melting point: 56 °C
IC50 (IP receptor): 0.1 to 1 µM

O=C(O)C(Cc1ccc(F)cc1)Nc1cc(-c2ccc(OCc3ccccc3)cc2)ncn1 (stereo not shown) [Example 1-12]
melting point: 186 °C
IC50 (IP receptor): < 0.1 µM

CCCCC(Nc1cc(-c2ccc(OCc3ccccc3)cc2)ncn1)C(=O)O (stereo not shown) [Example 1-13]
melting point: 187 °C
IC50 (IP receptor): < 0.1 µM

O=C(O)C(CCc1ccccc1)Nc1cc(-c2ccc(OCc3ccccc3)cc2)ncn1 (stereo not shown) [Example 1-14]
melting point: 226 to 228 °C
IC50 (IP receptor): < 0.1 µM

CC(C)CC(Nc1cc(-c2ccc(OCc3ccccc3)cc2)ncn1)C(=O)O (stereo not shown) [Example 1-15]
melting point: 244 to 246 °C
IC50 (IP receptor): 0.1 to 1 µM

CC(C)C(Nc1cc(-c2ccc(OCc3ccccc3)cc2)ncn1)C(=O)O (stereo not shown) [Example 1-16]
melting point: 235 to 237 °C
IC50 (IP receptor): 0.1 to 1 µM

CSCCC(Nc1cc(-c2ccc(OCc3ccccc3)cc2)ncn1)C(=O)O (stereo not shown) [Example 1-17]
melting point: 210 °C
IC50 (IP receptor): < 0.1 µM

CC(Nc1cc(-c2ccc(OCc3ccccc3)cc2)ncn1)C(=O)O (stereo not shown) [Example 1-18]
melting point: 158 °C
IC50 (IP receptor): 0.1 to 1 µM

CC(Cc1ccccc1)(Nc1cc(-c2ccc(OCc3ccccc3)cc2)ncn1)C(=O)O (stereo not shown) [Example 1-19]
melting point: 187 °C
IC50 (IP receptor): < 0.1 µM

O=C(O)C(Cc1ccccc1)Nc1ncnc(-c2ccc(OCc3ccccc3)cc2)c1F (stereo not shown) [Example 1-20]
melting point: 145 to 146 °C
IC50 (IP receptor): < 0.1 µM

O=C(O)C(Cc1ccc(Cl)cc1)Nc1cc(-c2ccc(OCc3ccccc3)cc2)ncn1 (stereo not shown) [Example 1-22]
melting point: 150 to 153 °C (dec.)
IC50 (IP receptor): < 0.1 µM

C#CCC(Nc1cc(-c2ccc(OCc3ccccc3)cc2)ncn1)C(=O)O (stereo not shown) [Example 1-23]
melting point: 155 °C
IC50 (IP receptor): < 0.1 µM

CS(=O)(=O)CCC(Nc1cc(-c2ccc(OCc3ccccc3)cc2)ncn1)C(=O)O (stereo not shown) [Example 1-24]
melting point: 138 °C
IC50 (IP receptor): 0.1 to 1 µM

O=C(O)C(Cc1ccc([N+](=O)[O-])cc1)Nc1cc(-c2ccc(OCc3ccccc3)cc2)ncn1 (stereo not shown) [Example 1-25]
melting point: 211 °C
IC50 (IP receptor): < 0.1 µM

O=C(O)C(Cc1ccc(O)cc1)Nc1cc(-c2ccc(OCc3ccccc3)cc2)ncn1 (stereo not shown) [Example 1-26]
melting point: 233 to 236 °C
IC50 (IP receptor): < 0.1 µM

CC(O)C(Nc1cc(-c2ccc(OCc3ccccc3)cc2)ncn1)C(=O)O (stereo not shown) [Example 1-27]
melting point: 211 to 214 °C
IC50 (IP receptor): 0.1 to 1 µM

C=CCC(Nc1cc(-c2ccc(OCc3ccccc3)cc2)ncn1)C(=O)O (stereo not shown) [Example 1-28]
melting point: 135 to 137 °C
IC50 (IP receptor): < 0.1 µM

Nc1ccc(CC(Nc2cc(-c3ccc(OCc4ccccc4)cc3)ncn2)C(=O)O)cc1 (stereo not shown) [Example 1-29]
melting point: 145 °C
IC50 (IP receptor): < 0.1 µM

O=C(O)C(Cc1ccccc1)Nc1ncnc(-c2ccc(OCc3ccccc3)cc2)n1 (stereo not shown) [Example 1-30]
melting point: 186 to 188 °C
IC50 (IP receptor): < 0.1 µM

O=C(O)C(Cc1ccccn1)Nc1cc(-c2ccc(OCc3ccccc3)cc2)ncn1 (stereo not shown) [Example 1-31]
melting point: 218 to 223 °C
IC50 (IP receptor): < 0.1 µM

O=C(O)C(CC(F)(F)F)Nc1cc(-c2ccc(OCc3ccccc3)cc2)ncn1 (stereo not shown) [Example 1-32]
melting point: 156 to 158 °C
IC50 (IP receptor): < 0.1 µM

O=C(O)C(COCc1ccccc1)Nc1cc(-c2ccc(OCc3ccccc3)cc2)ncn1 (stereo not shown) [Example 1-33]
melting point: 132 to 135 °C
IC50 (IP receptor): < 0.1 µM

COCC(Nc1cc(-c2ccc(OCc3ccccc3)cc2)ncn1)C(=O)O (stereo not shown) [Example 1-34]
melting point: 115 to 120 °C
IC50 (IP receptor): < 0.1 µM

CC(Cc1cccc(O)c1)(Nc1cc(-c2ccc(OCc3ccccc3)cc2)ncn1)C(=O)O (stereo not shown) [Example 1-35]
melting point: 265 to 267 °C
IC50 (IP receptor): > 1 µM

O=C(O)C(Cc1ccccc1)Nc1ncnc(-c2ccc(OCC3CC3)cc2)c1F (stereo not shown) [Example 1-36]
melting point: 170 to 173 °C
IC50 (IP receptor): < 0.1 µM

O=C(O)C(Cc1c[nH]cn1)Nc1cc(-c2ccc(OCc3ccccc3)cc2)ncn1 (stereo not shown) [Example 1-39]
melting point: 183 to 188 °C
IC50 (IP receptor): 0.1 to 1 µM

O=C(O)C(Cc1ccc(Cl)cc1)Nc1cc(-c2ccc(OCC3CC3)cc2)ncn1 (stereo not shown) [Example 1-40]
melting point: 166 to 169 °C
IC50 (IP receptor): < 0.1 µM

CCCCC(Nc1cc(-c2ccc(OCC3CC3)cc2)ncn1)C(=O)O (stereo not shown) [Example 1-41]
melting point: 100 to 104 °C
IC50 (IP receptor): 0.1 to 1 µM

O=C(O)C(Cc1ccc(F)cc1)Nc1cc(-c2ccc(OCC3CC3)cc2)ncn1 (stereo not shown) [Example 1-42]
melting point: 126 to 128 °C
IC50 (IP receptor): < 0.1 µM

O=C(O)C(Cc1ccccc1)Nc1cc(-c2cccc(OCc3ccccc3)c2)ncn1 (stereo not shown) [Example 1-43]
melting point: 150 to 152 °C
IC50 (IP receptor): > 1 µM

O=C(O)C(Cc1ccccn1)Nc1cc(-c2ccc(OCC3CC3)cc2)ncn1 (stereo not shown) [Example 1-44]
melting point: 105 to 107 °C
IC50 (IP receptor): 0.1 to 1 µM

O=C(O)C(Cc1ccccn1)Nc1ncnc(-c2ccc(OCc3ccccc3)cc2)c1F (stereo not shown) [Example 1-45]
melting point: 177 to 178 °C
IC50 (IP receptor): < 0.1 µM

O=C(O)C(Cc1ccccn1)Nc1cc(-c2ccc(OCc3ccccc3)c(F)c2)ncn1 (stereo not shown) [Example 1-46]
melting point: 107 °C
IC50 (IP receptor): < 0.1 µM

O=C(O)C(Cc1ccccc1)Nc1cc(-c2ccc(OCc3ccccc3)c(F)c2)ncn1 (stereo not shown) [Example 1-47]
melting point: 117 to 120 °C
IC50 (IP receptor): < 0.1 µM

O=C(O)C(Cc1cccnc1)Nc1cc(-c2ccc(OCc3ccccc3)cc2)ncn1 (stereo not shown) [Example 1-48]
melting point: 188 to 192 °C
IC50 (IP receptor): < 0.1 µM

O=C(O)[C@H](Cc1ccccc1)Nc1cc(-c2ccc(OCC3CC3)cc2)ncn1 [Example 1-49]
melting point: 180 to 185 °C
IC50 (IP receptor): > 1 µM

O=C(O)[C@H](Cc1ccccc1)Nc1cc(-c2ccc(OCc3ccccc3)cc2)ncn1 [Example 1-50]
melting point: 150 to 155 °C
IC50 (IP receptor): 0.1 to 1 µM

CCCCC(Nc1cc(-c2ccc(-c3ccccc3)cc2)ncn1)C(=O)O (stereo not shown) [Example 1-56]
melting point: 110 to 120 °C
IC50 (IP receptor): 0.1 to 1 µM

O=C(O)C(Cc1ccccc1)Nc1cc(-c2ccc(OCc3ccccc3)cc2F)ncn1 (stereo not shown) [Example 1-57]
melting point: 133 to 136 °C
IC50 (IP receptor): 0.1 to 1 µM

CN(c1cc(-c2ccc(OCc3ccccc3)cc2)ncn1)C(Cc1ccccc1)C(=O)O (stereo not shown) [Example 1-58]
melting point: 112 to 115 °C
IC50 (IP receptor): < 0.1 µM

O=C(O)[C@H](Cc1ccccc1)Nc1cc(-c2ccc(OCC3CC3)cc2)ncn1 [Example 2-1, N-{6-[4-(Cyclopropylmethoxy)phenyl]pyrimidin-4-yl}phenylalanine]
melting point: 216 to 218 °C
IC50 (IP receptor): < 0.1 µM

COc1cc(COc2ccc(-c3cc(NC(Cc4ccccc4)C(=O)O)ncn3)cc2)cc(OC)c1 (stereo not shown) [Example 2-2]
melting point: 90 to 93 °C
IC50 (IP receptor): < 0.1 µM

O=C(O)C(Cc1ccccc1)Nc1cc(-c2ccc(OCc3cccc(F)c3)cc2)ncn1 (stereo not shown) [Example 2-3]
melting point: 175 to 177 °C
IC50 (IP receptor): < 0.1 µM

COc1cccc(COc2ccc(-c3cc(NC(Cc4ccccc4)C(=O)O)ncn3)cc2)c1 (stereo not shown) [Example 2-4]
melting point: 90 to 93 °C
IC50 (IP receptor): < 0.1 µM

O=C(O)C(Cc1ccccc1)Nc1cc(-c2ccc(O)cc2)ncn1 (stereo not shown) [Example 2-5]
melting point: 223 to 227 °C
IC50 (IP receptor): > 1 µM

O=C(O)C(Cc1ccccc1)Nc1cc(-c2ccc(OCc3ccccc3F)cc2)ncn1 (stereo not shown) [Example 2-6]
melting point: 220 to 223 °C (dec.)
IC50 (IP receptor): < 0.1 µM
